Activity calls are given as the source filed them. No cut-off for these calls is given here.
Key:
Mus musculus [1] = experiment: Antiinflammatory activity against BALB/c mouse model of heat-killed Propionibacterium acnes-induced peritonitis assessed as decrease in number of neutrophils at 300 pg, ip administered 12 hrs post Propionibacterium acnes injection and measured after 12 hrs; assay type: functional, organism-based
Mus musculus [2] = experiment: Antiinflammatory activity against ip dosed BALB/c mouse model of heat-killed Propionibacterium acnes-induced peritonitis assessed as decrease in number of neutrophils administered 12 hrs post Propionibacterium acnes injection and measured after 12 hrs; assay type: functional, organism-based
[3] = Metabolic stability in human liver microsomes assessed as parent compound remaining measured after 6 hrs by HPLC analysis; assay type: ADME, Microsome; conditions: read-out: Stability

remaining at 6 h [3] [%] | SMILES | inhibition (Mus musculus [1]) | inhibition (Mus musculus [2])
 | CC[C@@H](O)/C=C/c1ccccc1C/C=C/[C@@H](O)CCCC(=O)O | Active | Dose-dependent effect
< 40 | CC[C@@H](O)/C=C/c1ccc(C/C=C/[C@@H](O)CCCC(=O)O)cc1 | inactive | 
 | CC[C@@H](O)/C=C/c1cccc(C/C=C/[C@@H](O)CCCC(=O)O)c1 | inactive | 
< 40 | CC[C@@H](O)/C=C/C=C\C/C=C\C/C=C\C=C\[C@@H](O)CCCC(=O)O | Active | Dose-dependent effect

Source: ChEMBL document CHEMBL4342510, “Design and Synthesis of Benzene Congeners of Resolvin E2, a Proresolving Lipid Mediator, as Its Stable Equivalents” (ACS Med Chem Lett, 2020)
